Data set [1] deals with Plasmodium falciparum. The data set is described as follows: NOVARTIS: Inhibition of Plasmodium falciparum 3D7 (drug-susceptible) proliferation in erythrocyte-based infection assay. Particulars: Plasmodium falciparum, 3D7. It is filed as functional, organism-based.
Data set [2] relates to Plasmodium falciparum. The data set is described as follows: NOVARTIS: Inhibition of Plasmodium falciparum W2 (drug-resistant) proliferation in erythrocyte-based infection assay. Conditions: Plasmodium falciparum, W2; read-out: EC50. The format is functional, organism-based.
Data set [3] can be described thus: NOVARTIS: Cytotoxicity against human hepatocellular carcinoma cell line (Huh7). It is filed as toxicity, cell-based, Huh-7. Conditions: Huh7 cells (hepatocellular carcinoma cell line).

For the molecule `CCOC(=O)c1cnc2ccc(C(C)C)cc2c1O`, the 50% effective concentration (EC50) (in general, the concentration giving half of the maximal effect) turned out to be 1.15 µM with Plasmodium falciparum [1] and 1.14 µM in the data set on Plasmodium falciparum [2]. Moreover, the CC50 (in general, the concentration that lowers cell viability or growth by half) in data set [3] was more than 100 µM.
The like results for `CCN(CC)CCCNc1nc2cc(OC)c(OC)cc2c2nc(-c3ccccc3)nn12` were, in that order, 3.25 µM, 1.17 µM and more than 100 µM.
The like results for `COc1cccc(C(=O)NC(c2ccccc2OC)c2cc(Cl)c3cccnc3c2O)c1` (configuration not stated) were, in that order, 1.2 µM, 1.15 µM and more than 100 µM.
`CCOc1ccc(Nc2cc(C)nc3c(C)cc(C)cc23)cc1`: the EC50 with Plasmodium falciparum [1] came out at 0.484 µM; in the data set with Plasmodium falciparum [2], 0.225 µM. For the same molecule, the CC50 in data set [3] amounted to 19.2 µM.
As for `CCCCCn1c(C)[n+](CCCC)c2cc(Cl)c(Cl)cc21`, the results for the EC50 in the data set with Plasmodium falciparum [1] and in the data set with Plasmodium falciparum [2] were 1.24 µM and 1.16 µM, respectively. The same molecule gave a CC50 in data set [3] of more than 100 µM.
In the same order, the values of `O=C(O)c1cccc(NC(=O)c2ccc(N3C(=O)c4ccc(C(=O)Nc5cccc(C(=O)O)c5)cc4C3=O)cc2)c1` are more than 12.5 µM, 1.14 µM and more than 100 µM.
On to `CCC(CO)NCC(O)Cn1c2ccc(Br)cc2c2cc(Br)ccc21` (configuration not stated), for which the EC50 in the data set with Plasmodium falciparum [1] was 0.526 µM; with Plasmodium falciparum [2] it was 0.126 µM. In data set [3], this molecule had a CC50 of 11.2 µM.
The like results for `CCC(=O)N1CCc2cc(Br)cc(S(=O)(=O)N3CC(C)CC(C)C3)c21` (configuration not stated) were, in that order, 1.97 µM, 1.16 µM and more than 100 µM.
The like results for `CC1(C)N=C(N)N=C(N)N1c1ccccc1` were, in that order, 0.174 µM, 0.988 µM and more than 83.7 µM.
Consider `Cc1cccc(OCC(=O)Nc2cccc(NC(=O)COc3cccc(C)c3)n2)c1`, for which the 50% effective concentration (EC50) in the data set on Plasmodium falciparum [1] stood at 0.237 µM; in the data set on Plasmodium falciparum [2], 1.16 µM. This molecule also registered a CC50 in data set [3] of more than 100 µM.
In the same order, the values of `O=C(NC1CC1)c1ccc(N2CCC(Cc3ccccc3)CC2)c([N+](=O)[O-])c1` are 0.212 µM, 0.619 µM and 53.7 µM.
The like results for `FC(F)(F)c1cnc(Sc2nnc(-c3ccncc3)o2)c(Cl)c1` were, in that order, 1.87 µM, 0.976 µM and 83.9 µM.
The like results for `C=CCn1cc(C=NNc2nc3ccccc3[nH]2)c2ccccc21` were, in that order, 0.0913 µM, 0.22 µM and 18.4 µM.
On to `Cn1cnnc1SCC(=O)Nc1ccccc1C(F)(F)F`, for which the concentration giving a half-maximal response (EC50) was more than 12.5 µM with Plasmodium falciparum [1] and 1.19 µM in the data set on Plasmodium falciparum [2]. For the same molecule, in data set [3], the 50% cytotoxic concentration (CC50) was more than 100 µM.
With `COc1cc(C=C(C#N)c2nc3ccccc3[nH]2)ccc1OCc1ccccc1Cl`, the figures for the half-maximal effective concentration (EC50) in the data set with Plasmodium falciparum [1] and in the data set on Plasmodium falciparum [2] were 0.757 µM and 1.19 µM, respectively. This molecule returned a half-maximal cytotoxic concentration (CC50) in data set [3] of more than 100 µM.
In the same order, the values of `CCN1CCN(c2c(Cl)cccc2NC(=O)C(Cl)(Cl)Cl)CC1` are 1.67 µM, 1.19 µM and more than 100 µM.
The like results for `CC1CCN(CCCNc2ccc(C(=O)Nc3ccc(C(F)(F)F)cc3)cc2[N+](=O)[O-])CC1` were, in that order, 0.199 µM, 0.278 µM and 23.4 µM.
The like results for `Cc1cc(N2CCCC2)nc2ccc(NC(=S)NCCCN3CCN(Cc4ccccc4)CC3)cc12` were, in that order, 0.116 µM, 0.658 µM and 55.5 µM.
As for `CC(C)C(=O)N(C)CCCNc1ccnc2cc(Cl)ccc12`, the concentration for a half-maximal effect (EC50) is 0.131 µM with Plasmodium falciparum [1] and 0.118 µM with Plasmodium falciparum [2]. Also, the CC50 in data set [3] was more than 10 µM.
In the same order, the values of `O=C(Nc1cccc(N2CCC(NCC3CCCCC3)CC2)c1)C1CC1` are 3.68 µM, 1.18 µM and more than 100 µM.
The like results for `Cc1ccc(-c2c[n+](CC(=O)c3ccccc3Cl)c3n2CCC3)cc1` were, in that order, 1.01 µM, 1.11 µM and more than 95.9 µM.
The like results for `COc1ccc2c(C)nc(Nc3nc(C)cc(-c4ccccc4)n3)nc2c1` were, in that order, 0.341 µM, 1.17 µM and more than 100 µM.
Consider `Nc1ccc(C(=O)NN=Cc2cccc([N+](=O)[O-])c2)cc1`, for which the EC50 with Plasmodium falciparum [1] came out at 0.298 µM; in the data set with Plasmodium falciparum [2], 0.112 µM. In data set [3], this molecule came in with a CC50 of more than 10 µM.
`CCOC(=O)c1c(C)n(-c2ccccc2)c2ccc(OC(=O)c3ccco3)cc12`: the values for the EC50 in the data set with Plasmodium falciparum [1] and in the data set on Plasmodium falciparum [2] were 0.607 µM and 1.14 µM, respectively. Besides, the CC50 in data set [3] was more than 100 µM.
`CC(C)CN1C(=O)c2ccccc2C(C(=O)Nc2ccc(CN3CCC(C)CC3)cc2)C1c1cccs1` (configuration not stated): the 50% effective concentration (EC50) in the data set with Plasmodium falciparum [1] was found to be 2.05 µM; in the data set on Plasmodium falciparum [2], 1.13 µM. The molecule further displayed a half-maximal cytotoxic concentration (CC50) in data set [3] of more than 100 µM.
The like results for `CC(=NNC(=O)/C(=C/c1ccc([N+](=O)[O-])cc1)NC(=O)c1ccccc1)c1ccccn1` were, in that order, 1.05 µM, 0.117 µM and more than 10 µM.
The like results for `Cn1cc(C(c2cccs2)c2cn(C)c3ccccc23)c2ccccc21` were, in that order, 1.37 µM, 0.61 µM and 52.3 µM.
Regarding `Cc1cccc(-c2cc(C(=O)NC3CCN(Cc4ccccc4)CC3)cc(-n3cnnn3)c2)c1`, the values for the concentration giving a half-maximal response (EC50) in the data set with Plasmodium falciparum [1] and with Plasmodium falciparum [2] were 0.372 µM and 0.57 µM, respectively. Further, it took 50.1 µM to reach half-maximal cytotoxicity in data set [3] (CC50).
`Cc1cccc(OC(C)C(=O)N2CCc3ccccc32)c1` (configuration not stated): the EC50 is 3.48 µM with Plasmodium falciparum [1] and 1.14 µM with Plasmodium falciparum [2]. For the same molecule, the half-maximal cytotoxic concentration (CC50) in data set [3] was more than 100 µM.
In the same order, the values of `Cc1n(N)c2ccccc2[n+]1CC(=O)c1ccc([N+](=O)[O-])cc1` are 1.95 µM, 1.14 µM and more than 100 µM.
In the same order, the values of `CC(=O)N(C1=C(N2CCCCC2)C(=O)c2ccccc2C1=O)c1cccc(Cl)c1` are 0.239 µM, 0.375 µM and 32 µM.
Regarding `c1ccc(CCNC2CCN(Cc3ccccc3)CC2)cc1`, the EC50 in the data set on Plasmodium falciparum [1] amounted to 1.47 µM; with Plasmodium falciparum [2] it was 0.5 µM. This molecule registered a cytotoxic concentration (CC50) in data set [3] of 43.5 µM.
In the same order, the values of `O=[N+]([O-])c1cc(Br)c(Nc2ccccc2)c([N+](=O)[O-])c1` are 0.167 µM, 0.0758 µM and 6.6 µM.
In the same order, the values of `COc1cc2ccccc2cc1C(=O)NCCOC12CC3CC(CC(C3)C1)C2` are 3.5 µM, 1.15 µM and more than 100 µM.
As to `Cc1ccn2c(NC(C)(C)CC(C)(C)C)c(-c3ccccc3OC(=O)c3ccccc3Br)nc2c1`, the concentration giving a half-maximal response (EC50) in the data set on Plasmodium falciparum [1] was 0.76 µM; in the data set on Plasmodium falciparum [2], 0.117 µM. Also, the CC50 in data set [3] was more than 10 µM.
Take `CCCCCCc1ccc(C(=O)Oc2ccccc2-c2nc3cc(C)ccn3c2NC(C)(C)CC(C)(C)C)cc1`: the EC50 came out at 0.813 µM with Plasmodium falciparum [1] and 0.162 µM in the data set on Plasmodium falciparum [2]. The CC50 in data set [3] was more than 13.8 µM.
In the same order, the values of `Cc1ccc(-c2c3c4n(c(-c5ccc(Cl)cc5)cn4c2C(=O)Nc2ccccc2Cl)CCCC3)cc1` are 0.269 µM, 1.16 µM and more than 100 µM.
For `Cc1ccccc1Cn1c(C)c[n+]2ccsc12`, the EC50 in the data set with Plasmodium falciparum [1] stood at 1.28 µM; in the data set on Plasmodium falciparum [2], 0.113 µM. Also, in data set [3], the CC50 was more than 10 µM.
The like results for `COc1ccc(C2CC(c3cccs3)=NN2C(=O)CSc2nnc(CNC(=O)c3cccs3)n2-c2cc(C)ccc2C)cc1` (configuration not stated) were, in that order, more than 8.55 µM, 1.14 µM and more than 100 µM.
With `O=C(c1ccccc1)C1NC1c1ccc(Br)cc1` (configuration not stated), the figures for the concentration giving a half-maximal response (EC50) with Plasmodium falciparum [1] and in the data set with Plasmodium falciparum [2] were 0.989 µM and 1.12 µM, respectively. Also, in data set [3], the CC50 was more than 100 µM.
In the case of `CCCc1c(CC)c(=N)c2ccccc2n1C`, the concentration giving a half-maximal response (EC50) is 0.762 µM in the data set on Plasmodium falciparum [1] and 1.14 µM in the data set with Plasmodium falciparum [2]. The same molecule showed a CC50 in data set [3] of more than 100 µM.
The like results for `CCC(c1nc2ccccc2c(=O)n1-c1ccccc1OC)N(CCc1ccccc1)C(=O)c1cccc(C(F)(F)F)c1` (configuration not stated) were, in that order, 0.919 µM, 0.118 µM and more than 10 µM.
The like results for `COc1ccccc1C(=O)NC1CCN(CC(O)CN(Cc2ccccc2)S(=O)(=O)c2ccccc2)C1` (configuration not stated) were, in that order, 0.215 µM, 0.115 µM and more than 10 µM.
In the same order, the values of `N#Cc1c2c(c(N3CCN(c4ccccn4)CC3)n3c1nc1ccccc13)CCC2` are 2.36 µM, 1.18 µM and more than 100 µM.
Take `CCN(CC)S(=O)(=O)c1ccc(-c2csc(Nc3ccc(C)c(C)c3)n2)cc1`: the EC50 is more than 2.1 µM in the data set with Plasmodium falciparum [1] and more than 1.17 µM in the data set with Plasmodium falciparum [2]. For the same molecule, the CC50 in data set [3] is more than 100 µM.
The like results for `CC1=C(C(=O)OC(C)C)C(c2ccc([N+](=O)[O-])cc2)C2=C(CCCC2=O)N1` (configuration not stated) were, in that order, 6.23 µM, 1.14 µM and more than 100 µM.
Regarding `CCOC(=O)c1cnn(-c2ccnc3cc(Cl)ccc23)c1CNC(C)c1ccco1` (configuration not stated), the results for the concentration giving a half-maximal response (EC50) in the data set with Plasmodium falciparum [1] and with Plasmodium falciparum [2] were 0.795 µM and 0.448 µM, respectively. In data set [3], the 50% cytotoxic concentration (CC50) is 38.9 µM.
In the same order, the values of `CCC(Sc1nc2ccccc2n1C(C)=O)C(=O)NC1=NN=C(c2ccc(Br)cc2)CS1` (configuration not stated) are 0.549 µM, 0.543 µM and 46.7 µM.
The like results for `COc1ccc(C2C(C(=O)Nc3cccc(C(F)(F)F)c3)c3ccccc3C(=O)N2C2CCCCC2)cc1` (configuration not stated) were, in that order, 1.83 µM, 1.13 µM and more than 100 µM.
In the same order, the values of `O=C(NC1CCN(CC(O)CN(Cc2ccccc2)S(=O)(=O)c2ccccc2)C1)C1CCCCC1` (configuration not stated) are 0.185 µM, 0.116 µM and more than 10 µM.
On to `S=C(NCc1ccco1)NN=CC=NNC(=S)NCc1ccco1`, for which the EC50 was 0.121 µM with Plasmodium falciparum [1] and 0.113 µM in the data set on Plasmodium falciparum [2]. For the same molecule, in data set [3], the CC50 is more than 10 µM.
The like results for `CN1CCc2c(sc3c2C(=O)NC(c2ccc(O)cc2)N3)C1` (configuration not stated) were, in that order, 0.755 µM, 0.378 µM and 33.5 µM.
The like results for `CC(C)NC(=O)c1ccc2c(c1)N=C(c1ccccc1)N(C1CC1)C2` were, in that order, more than 1.68 µM, 0.117 µM and more than 10 µM.
In the same order, the values of `COc1ccc(OC)c(-c2ccc(O)c(CNCc3ccccc3OC)c2)c1` are more than 1.52 µM, 0.117 µM and more than 10 µM.

Values taken from ChEMBL document CHEMBL1156829 (Proc Natl Acad Sci U S A, 2008).
